What was measured:
Test in all cases: KinaseProfiler off-target kinase profiling
Assay type in all cases: biochemical
Details in all cases: 10 μM, ATP near Km
[1] = target: Rse (Homo sapiens (Human), UniProt Q06418)
Method: (§1) Two representative compounds (Example 2, 14) of the invention were tested for off-target kinase activity at a concentration of 10 μM by Millipore, Inc. in their KinaseProfiler™ service against all the kinases available in their full kinase panel. These compounds were run in duplicate at a concentration of ATP near the Km for each individual kinase according to Millipore's specifications. The results are shown in Table B. Data are reported as percent of control (POC) and are the average of the two replicates.

[2] = target: MRCKalpha (Homo sapiens (Human), UniProt Q5VT25)
Chain of MRCKalpha (Q5VT25 whole entry): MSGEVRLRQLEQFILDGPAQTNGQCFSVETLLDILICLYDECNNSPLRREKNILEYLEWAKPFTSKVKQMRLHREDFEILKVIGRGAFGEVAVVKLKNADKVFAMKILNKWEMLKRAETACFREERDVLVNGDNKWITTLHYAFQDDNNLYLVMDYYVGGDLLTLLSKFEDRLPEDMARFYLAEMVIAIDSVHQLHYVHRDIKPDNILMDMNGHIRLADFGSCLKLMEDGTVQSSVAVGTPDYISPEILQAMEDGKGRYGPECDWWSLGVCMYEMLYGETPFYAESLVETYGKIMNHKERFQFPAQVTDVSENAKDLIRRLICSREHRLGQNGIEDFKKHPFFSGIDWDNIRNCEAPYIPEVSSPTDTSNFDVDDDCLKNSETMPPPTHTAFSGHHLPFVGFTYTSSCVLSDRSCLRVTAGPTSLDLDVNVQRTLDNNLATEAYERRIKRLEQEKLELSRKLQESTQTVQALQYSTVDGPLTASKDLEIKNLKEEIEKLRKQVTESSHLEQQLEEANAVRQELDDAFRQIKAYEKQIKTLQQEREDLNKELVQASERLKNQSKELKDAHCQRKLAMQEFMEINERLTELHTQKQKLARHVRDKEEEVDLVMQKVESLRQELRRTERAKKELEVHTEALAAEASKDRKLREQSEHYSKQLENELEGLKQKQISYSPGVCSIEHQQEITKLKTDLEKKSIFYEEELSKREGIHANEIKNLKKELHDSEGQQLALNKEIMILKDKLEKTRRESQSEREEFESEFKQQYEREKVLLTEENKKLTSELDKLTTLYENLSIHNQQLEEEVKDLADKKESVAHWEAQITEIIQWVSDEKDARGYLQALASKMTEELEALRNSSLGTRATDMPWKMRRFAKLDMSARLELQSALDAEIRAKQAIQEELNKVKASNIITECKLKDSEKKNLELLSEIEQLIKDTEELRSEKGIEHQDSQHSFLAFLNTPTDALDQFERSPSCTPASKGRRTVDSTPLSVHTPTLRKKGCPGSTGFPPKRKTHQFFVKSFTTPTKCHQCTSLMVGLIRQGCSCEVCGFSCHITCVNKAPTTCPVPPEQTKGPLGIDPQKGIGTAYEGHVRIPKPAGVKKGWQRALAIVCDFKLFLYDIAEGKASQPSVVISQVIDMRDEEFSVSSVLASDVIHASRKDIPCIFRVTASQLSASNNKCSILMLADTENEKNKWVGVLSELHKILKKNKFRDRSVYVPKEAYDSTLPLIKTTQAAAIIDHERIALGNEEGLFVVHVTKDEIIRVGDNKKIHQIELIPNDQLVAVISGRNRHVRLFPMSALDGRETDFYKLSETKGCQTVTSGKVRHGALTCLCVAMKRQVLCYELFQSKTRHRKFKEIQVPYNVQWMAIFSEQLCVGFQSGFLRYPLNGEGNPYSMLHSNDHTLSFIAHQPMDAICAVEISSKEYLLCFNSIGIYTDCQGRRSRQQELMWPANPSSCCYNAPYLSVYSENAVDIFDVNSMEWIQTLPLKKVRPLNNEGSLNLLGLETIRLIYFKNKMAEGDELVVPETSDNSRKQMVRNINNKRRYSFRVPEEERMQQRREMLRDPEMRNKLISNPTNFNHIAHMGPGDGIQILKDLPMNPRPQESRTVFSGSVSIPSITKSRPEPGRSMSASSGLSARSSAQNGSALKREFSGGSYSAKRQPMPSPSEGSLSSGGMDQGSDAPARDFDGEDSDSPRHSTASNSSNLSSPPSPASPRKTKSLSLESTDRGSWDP
Method: as §1

[3] = target: CHK2 (Homo sapiens (Human), UniProt O96017)
Chain of CHK2 (O96017 whole entry): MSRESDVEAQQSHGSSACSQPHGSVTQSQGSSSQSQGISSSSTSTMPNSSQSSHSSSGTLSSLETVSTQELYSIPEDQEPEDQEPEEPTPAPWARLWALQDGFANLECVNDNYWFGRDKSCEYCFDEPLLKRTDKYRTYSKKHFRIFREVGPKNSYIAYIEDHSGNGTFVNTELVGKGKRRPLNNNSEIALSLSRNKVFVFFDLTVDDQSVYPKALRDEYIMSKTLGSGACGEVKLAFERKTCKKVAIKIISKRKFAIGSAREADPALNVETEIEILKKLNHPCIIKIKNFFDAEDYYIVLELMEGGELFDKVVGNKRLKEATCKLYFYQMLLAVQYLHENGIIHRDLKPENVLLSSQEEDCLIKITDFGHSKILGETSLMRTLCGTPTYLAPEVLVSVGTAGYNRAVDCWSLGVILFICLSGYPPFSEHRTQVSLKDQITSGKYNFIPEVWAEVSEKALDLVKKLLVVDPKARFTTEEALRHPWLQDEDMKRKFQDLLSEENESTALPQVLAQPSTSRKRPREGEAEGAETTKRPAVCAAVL
Method: as §1

[4] = target: MARK1 (Homo sapiens (Human), UniProt Q9P0L2)
Method: as §1

[5] = target: ROCK-II (Homo sapiens (Human), UniProt O75116)
Chain of ROCK-II (O75116 whole entry): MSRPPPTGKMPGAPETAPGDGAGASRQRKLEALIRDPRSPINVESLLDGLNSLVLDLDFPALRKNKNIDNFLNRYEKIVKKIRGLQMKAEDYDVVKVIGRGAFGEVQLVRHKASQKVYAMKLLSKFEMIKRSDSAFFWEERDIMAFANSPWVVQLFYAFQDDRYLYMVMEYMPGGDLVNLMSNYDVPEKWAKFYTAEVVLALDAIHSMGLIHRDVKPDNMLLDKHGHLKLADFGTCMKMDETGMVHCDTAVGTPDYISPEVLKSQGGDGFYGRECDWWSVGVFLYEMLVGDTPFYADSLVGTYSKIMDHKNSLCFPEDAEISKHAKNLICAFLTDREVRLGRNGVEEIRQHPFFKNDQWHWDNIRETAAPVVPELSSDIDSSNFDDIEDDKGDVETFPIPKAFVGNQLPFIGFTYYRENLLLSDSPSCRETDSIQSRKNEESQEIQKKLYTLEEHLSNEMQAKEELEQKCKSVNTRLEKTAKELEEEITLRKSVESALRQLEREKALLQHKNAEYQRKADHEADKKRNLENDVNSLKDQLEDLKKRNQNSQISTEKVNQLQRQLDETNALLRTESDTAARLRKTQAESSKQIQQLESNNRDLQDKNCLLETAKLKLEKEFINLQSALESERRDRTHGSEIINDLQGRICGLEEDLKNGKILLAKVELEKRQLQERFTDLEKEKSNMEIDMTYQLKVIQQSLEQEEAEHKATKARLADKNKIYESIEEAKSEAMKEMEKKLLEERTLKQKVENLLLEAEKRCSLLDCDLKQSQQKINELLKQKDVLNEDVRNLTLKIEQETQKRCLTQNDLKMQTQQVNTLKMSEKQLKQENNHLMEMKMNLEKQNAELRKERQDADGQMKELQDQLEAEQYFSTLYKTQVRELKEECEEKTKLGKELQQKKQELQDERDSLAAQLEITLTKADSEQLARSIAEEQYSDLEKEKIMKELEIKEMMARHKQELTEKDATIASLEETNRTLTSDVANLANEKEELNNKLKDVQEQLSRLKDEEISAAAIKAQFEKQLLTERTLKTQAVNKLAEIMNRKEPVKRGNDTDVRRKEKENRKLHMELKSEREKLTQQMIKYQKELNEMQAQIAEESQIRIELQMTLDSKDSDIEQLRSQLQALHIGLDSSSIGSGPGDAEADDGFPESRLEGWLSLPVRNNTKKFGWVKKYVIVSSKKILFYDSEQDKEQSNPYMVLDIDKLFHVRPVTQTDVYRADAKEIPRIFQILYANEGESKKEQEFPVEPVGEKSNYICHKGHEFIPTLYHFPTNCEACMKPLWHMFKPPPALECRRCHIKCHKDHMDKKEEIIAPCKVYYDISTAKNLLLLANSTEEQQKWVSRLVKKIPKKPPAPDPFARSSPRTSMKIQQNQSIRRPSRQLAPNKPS
Method: as §1

[6] = target: Pim-2 (Homo sapiens (Human), UniProt Q9P1W9)
Method: as §1

[7] = target: Rsk2 (Homo sapiens (Human), UniProt P51812)
Method: as §1

[8] = target: TNK2 (Homo sapiens (Human), UniProt Q07912)
Method: as §1

[9] = target: Fgr (Homo sapiens (Human), UniProt P09769)
Method: as §1

[10] = target: SGK3 (Homo sapiens (Human), UniProt Q96BR1)
Method: as §1

[11] = target: p38delta (Homo sapiens (Human), UniProt O15264)
Method: as §1

[12] = target: PDGFRalpha (Homo sapiens (Human), UniProt P16234)
Method: as §1

[13] = target: p70S6K (Homo sapiens (Human), UniProt P23443)
Method: as §1

[14] = target: JNK1alpha1 (Homo sapiens (Human), UniProt P45983)
Method: as §1

[15] = target: IRR (Homo sapiens (Human), UniProt P14616)
Method: as §1

[16] = target: NEK2 (Homo sapiens (Human), UniProt P51955)
Method: as §1

[17] = target: MAP4K2 (Homo sapiens (Human), UniProt Q12851)
Chain of MAP4K2 (Q12851 whole entry): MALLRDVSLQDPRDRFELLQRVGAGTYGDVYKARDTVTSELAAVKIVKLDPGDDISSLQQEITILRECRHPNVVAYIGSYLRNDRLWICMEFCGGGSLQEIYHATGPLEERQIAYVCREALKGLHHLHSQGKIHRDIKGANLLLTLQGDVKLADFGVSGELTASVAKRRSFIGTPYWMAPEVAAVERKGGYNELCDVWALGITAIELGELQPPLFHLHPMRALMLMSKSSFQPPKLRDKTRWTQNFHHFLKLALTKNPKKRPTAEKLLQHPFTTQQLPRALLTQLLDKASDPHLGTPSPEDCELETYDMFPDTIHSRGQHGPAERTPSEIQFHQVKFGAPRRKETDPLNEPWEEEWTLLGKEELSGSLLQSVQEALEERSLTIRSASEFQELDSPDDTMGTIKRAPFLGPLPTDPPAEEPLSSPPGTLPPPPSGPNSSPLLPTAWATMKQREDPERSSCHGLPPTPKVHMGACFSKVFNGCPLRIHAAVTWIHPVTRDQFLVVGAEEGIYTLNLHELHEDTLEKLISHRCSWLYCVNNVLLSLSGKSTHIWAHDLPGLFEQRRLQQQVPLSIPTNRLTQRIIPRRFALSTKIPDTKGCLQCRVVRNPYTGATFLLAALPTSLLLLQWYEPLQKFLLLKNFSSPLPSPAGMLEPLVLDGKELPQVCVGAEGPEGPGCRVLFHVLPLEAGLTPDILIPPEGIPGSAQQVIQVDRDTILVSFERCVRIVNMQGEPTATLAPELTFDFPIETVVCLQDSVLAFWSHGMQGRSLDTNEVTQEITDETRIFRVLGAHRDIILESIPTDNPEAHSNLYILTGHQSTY
Method: as §1

[18] = target: CK1gamma3 (Homo sapiens (Human), UniProt Q9Y6M4)
Method: as §1

[19] = target: LIMK1 (Homo sapiens (Human), UniProt P53667)
Method: as §1

[20] = target: mTOR/FKBP12 (Homo sapiens (Human), UniProt P42345)
Method: as §1

[21] = target: PRKG1alpha (Homo sapiens (Human), UniProt Q13976)
Method: as §1

[22] = target: Met (Homo sapiens (Human), UniProt P08581)
Method: as §1

[23] = target: MKK7 (Homo sapiens (Human), UniProt O14733)
Method: as §1

[24] = target: CAMK2d (Homo sapiens (Human), UniProt Q13557)
Chain of CAMK2d (Q13557 whole entry): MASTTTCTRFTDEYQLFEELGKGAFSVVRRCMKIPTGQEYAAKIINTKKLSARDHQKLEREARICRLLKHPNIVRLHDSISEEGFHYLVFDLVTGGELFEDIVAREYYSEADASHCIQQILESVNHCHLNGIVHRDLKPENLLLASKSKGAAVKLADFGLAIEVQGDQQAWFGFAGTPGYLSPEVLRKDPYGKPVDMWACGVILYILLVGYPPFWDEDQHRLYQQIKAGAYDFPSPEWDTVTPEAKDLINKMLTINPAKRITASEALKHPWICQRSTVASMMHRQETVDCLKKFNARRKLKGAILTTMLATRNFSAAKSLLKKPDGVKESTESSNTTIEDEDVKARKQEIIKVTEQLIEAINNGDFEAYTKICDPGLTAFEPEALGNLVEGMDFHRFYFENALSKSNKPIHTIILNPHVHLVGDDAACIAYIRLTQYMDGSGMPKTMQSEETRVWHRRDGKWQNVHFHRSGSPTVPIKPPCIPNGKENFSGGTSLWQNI
Method: as §1

[25] = target: p38beta (Homo sapiens (Human), UniProt Q15759)
Method: as §1

[26] = target: CAMK1 (Homo sapiens (Human), UniProt Q14012)
Method: as §1

[27] = target: Pim-1 (Homo sapiens (Human), UniProt P11309)
Method: as §1

[28] = target: c-RAF (Homo sapiens (Human), UniProt P04049, Y340D/Y341D)
Method: as §1

[29] = target: eEF-2K (Homo sapiens (Human), UniProt O00418)
Method: as §1

[30] = target: CDK2/cyclinE (Homo sapiens (Human), UniProt P24941)
Method: as §1

[31] = target: CDK2/cyclinA (Homo sapiens (Human), UniProt P24941)
Method: as §1

[32] = target: SGK1 (Homo sapiens (Human), UniProt O00141)
Method: as §1

[33] = target: PDGFRbeta (Homo sapiens (Human), UniProt P09619)
Method: as §1

[34] = target: CAMK1d (Homo sapiens (Human), UniProt Q8IU85)
Method: as §1

[35] = target: MKNK2 (Homo sapiens (Human), UniProt Q9HBH9)
Method: as §1

[36] = target: TSSK2 (Homo sapiens (Human), UniProt Q96PF2)
Method: as §1

[37] = target: EphA8 (Homo sapiens (Human), UniProt P29322)
Method: as §1

[38] = target: GRK5 (Homo sapiens (Human), UniProt P34947)
Method: as §1

[39] = target: Plk2 (Homo sapiens (Human), UniProt Q9NYY3)
Method: as §1

| Avg POC [1] [POC] | Avg POC [2] [POC] | Avg POC [3] [POC] | Avg POC [4] [POC] | Avg POC [5] [POC] | Avg POC [6] [POC] | Avg POC [7] [POC] | Avg POC [8] [POC] | Avg POC [9] [POC] | Avg POC [10] [POC] | Avg POC [11] [POC] | Avg POC [12] [POC] | Avg POC [13] [POC] | Avg POC [14] [POC] | Avg POC [15] [POC] | Avg POC [16] [POC] | Avg POC [17] [POC] | Avg POC [18] [POC] | Avg POC [19] [POC] | Avg POC [20] [POC] | Compound | also measured |
| --- | --- | --- | --- | --- | --- | --- | --- | --- | --- | --- | --- | --- | --- | --- | --- | --- | --- | --- | --- | --- | --- |
| 96 | 113 | 101 | 97.5 | 102.5 | 86.5 | 106 | 109.5 | 108.5 | 106 | 107.5 | 110.5 | 105.5 | 98 | 105 | 96 | 105.5 | 87.5 | 100 | 108.5 | COCCN1C[C@@H](NC(=O)Nc2c(C)c(-c3ccnc(C)c3)nn2-c2ccccc2)[C@H](c2ccc(F)c(F)c2)C1 [Example 2, 1-((3S,4R)-4-(3,4-difluorophenyl)-1-(2-methoxyethyl)pyrrolidin-3-yl)-3-(4-methyl-3-(2-methylpyridin-4-yl)-1-phenyl-1H-pyrazol-5-yl)urea] | Avg POC [21]: 108 POC; Avg POC [22]: 106 POC; Avg POC [23]: 97.5 POC; Avg POC [24]: 91.5 POC; Avg POC [25]: 101.5 POC; Avg POC [26]: 107 POC; Avg POC [27]: 99.5 POC; Avg POC [28]: 103.5 POC; Avg POC [29]: 98.5 POC; Avg POC [30]: 103 POC; Avg POC [31]: 111 POC; Avg POC [32]: 98.5 POC; Avg POC [33]: 108.5 POC; Avg POC [34]: 100 POC; Avg POC [35]: 101 POC; Avg POC [36]: 107 POC; Avg POC [37]: 104.5 POC; Avg POC [38]: 103.5 POC; Avg POC [39]: 99.5 POC |
| 96.5 | 124.5 | 97.5 | 98 | 93.5 | 103.5 | 99.5 | 97.5 | 80.5 | 107 | 102.5 | 114.5 | 98 | 105 | 96 | 97.5 | 99.5 | 95 | 98 | 113 | COCCN1C[C@@H](NC(=O)Nc2c(C)c(-c3cnc(C)nc3)nn2-c2ccccc2)[C@H](c2cc(F)cc(F)c2)C1 [Example 14, 1-((3S,4R)-4-(3,5-difluorophenyl)-1-(2-methoxyethyl)pyrrolidin-3-yl)-3-(4-methyl-3-(2-methylpyrimidin-5-yl)-1-phenyl-1H-pyrazol-5-yl)urea] | Avg POC [21]: 100.5 POC; Avg POC [22]: 96.5 POC; Avg POC [23]: 111 POC; Avg POC [24]: 105.5 POC; Avg POC [25]: 93 POC; Avg POC [26]: 103.5 POC; Avg POC [27]: 103.5 POC; Avg POC [28]: 89 POC; Avg POC [29]: 103 POC; Avg POC [30]: 98.5 POC; Avg POC [31]: 113.5 POC; Avg POC [32]: 99 POC; Avg POC [33]: 120 POC; Avg POC [34]: 103.5 POC; Avg POC [35]: 101 POC; Avg POC [36]: 107.5 POC; Avg POC [37]: 104.5 POC; Avg POC [38]: 91 POC; Avg POC [39]: 102 POC |

Reference: patent US9896435B2, “N-pyrrolidinyl,N′-pyrazolyl-urea, thiourea, guanidine and cyanoguanidine compounds as TrkA kinase inhibitors” (Array BioPharma Inc., priority 2012, dated 2018)
